Drawing on patent US20260071220A1, “CONJUGATE OF NUCLEOTIDE ANALOG-CONTAINING DOUBLE-STRANDED RNAI ANALOG” (BaseCure Therapeutics LLC, priority 2022, published 2026), this text covers EC50 and CC50 for two molecules.

Settings in all cases: 24 h, positive control
One series deals with T1, hTLR3 (Homo sapiens, UniProt O15455).
T1 construct: host or cells: HEK BLUE hTLR3 (HEK293-derived SEAP reporter line)
T1 sequence (O15455 24-904): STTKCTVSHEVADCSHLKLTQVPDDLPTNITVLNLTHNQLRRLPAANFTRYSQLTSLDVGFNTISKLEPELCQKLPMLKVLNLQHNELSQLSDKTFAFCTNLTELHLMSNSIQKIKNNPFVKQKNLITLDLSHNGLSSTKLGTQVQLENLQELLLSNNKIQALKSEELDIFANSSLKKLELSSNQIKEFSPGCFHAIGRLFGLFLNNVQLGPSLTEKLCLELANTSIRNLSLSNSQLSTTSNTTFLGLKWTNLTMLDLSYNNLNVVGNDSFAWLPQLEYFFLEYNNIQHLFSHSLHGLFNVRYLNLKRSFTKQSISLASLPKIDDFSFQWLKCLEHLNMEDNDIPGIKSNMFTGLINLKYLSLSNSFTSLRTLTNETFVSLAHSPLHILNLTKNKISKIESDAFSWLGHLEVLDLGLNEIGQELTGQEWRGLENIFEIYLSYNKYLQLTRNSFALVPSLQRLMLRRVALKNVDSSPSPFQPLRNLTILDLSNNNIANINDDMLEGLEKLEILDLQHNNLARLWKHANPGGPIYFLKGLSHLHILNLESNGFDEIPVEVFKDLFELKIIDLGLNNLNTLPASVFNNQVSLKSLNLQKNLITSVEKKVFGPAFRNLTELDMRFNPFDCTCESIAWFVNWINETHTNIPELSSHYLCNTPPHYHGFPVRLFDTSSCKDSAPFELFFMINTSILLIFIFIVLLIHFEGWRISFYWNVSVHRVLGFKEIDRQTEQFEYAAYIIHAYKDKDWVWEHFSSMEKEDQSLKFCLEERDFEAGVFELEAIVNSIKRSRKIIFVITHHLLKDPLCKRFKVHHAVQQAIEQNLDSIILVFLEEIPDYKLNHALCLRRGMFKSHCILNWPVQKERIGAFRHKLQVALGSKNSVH
Description: Agonistic activity on hTLR3 cells (HEK BLUE, QUANTI-Blue OD650). It is filed as cell-based. How it is done:
(§1) 1) The conjugate of the present invention was diluted to a concentration that was 20 times a final concentration, the diluted conjugate was mixed with RNAiMAX-OPTI MEM (RNAiMAX:OPTI MEM=3:47) at a ratio of 1:1 and incubated for 15 min at room temperature.
(§2) 2) 10 μL of incubated conjugate of the present invention was added into a corresponding cell plate, with 10 concentrations in total, a maximum concentration being 200 nM, and double duplicated wells for each concentration.
10 μL of 0.5 μM BLOCK-iT™ Alexa Fluor® Red Fluorescent Control was added into 2 transfection positive control wells.
(§3) 4) 90 μL of cells were seeded into a 96-well plate with the conjugate at the density of 50,000 cells/well.
(§4) 5) The conjugate of the present invention and the cells were co-incubated for 24 h in an incubator under the conditions of 37° C. and 5% CO2.
7) Compound activity detection: 20 μL of cell supernatant was taken from each well and added into an experimental plate containing 180 μL of QUANTI-Blue™ reagent and then incubated for 1 h at 37° C., followed by detecting an absorbance values at 650 nm (OD650) using the multifunctional microplate reader Flexstation III.
(§5) Compound activity: the OD650 values were analyzed using GraphPad Prism software, and a dose effect curve of the compound was fit, and the EC50 value of the compound was calculated. Cell activity detection: the calculation formula of cell activity % was as follows. The cell activity % value was analyzed using GraphPadPrism software, the dose effect curve of the compound was fit, and the CC50 value of the compound on cell was calculated.

The subject of a further series is HEK BLUE hTLR3. Briefly: Cell activity detection (CellTiter-Glo) in hTLR3 cells. The format is cell-based, human. How it is done: as §1, §2, §3, §4
(§6) 8) Cell activity detection: the operation was carried out according to the method in the Celltiter-Glo specification, and a chemiluminescence signals (RLU) were detected using the multifunctional microplate reader Flexstation III.
as §5

In another series the test system is HEK BLUE hTLR8. Description: Cell activity detection (CellTiter-Glo) in hTLR8 cells. The format is cell-based, human. The protocol:
as §1, §2, §3, §4, §6, §5

The next series relates to HEK BLUE hTLR7. Description: Cell activity detection (CellTiter-Glo) in hTLR7 cells. It is filed as cell-based, human. The protocol:
as §1, §2, §3, §4, §6, §5

As to “Poly (I:C) HMW [Poly(I:C) HMW, reference compound]”, at hTLR3, the EC50 was found to be 0.05943 µg/mL. The molecule also displayed a CC50 with HEK BLUE hTLR3 greater than 2 µg/mL.

Turning to `CCOCc1nc2c(N)nc3ccccc3c2n1CC(C)(C)O` [Conjugate R848, R848, reference compound], the cytotoxic concentration (CC50) with HEK BLUE hTLR8 and in the series with HEK BLUE hTLR7 was greater than 10 µg/mL each time.
